Test results taken from patent US20260053759A1, “MESDOPETAM COMPOSITIONS” (ALKEM LABORATORIES LIMITED, priority 2022, published 2026).

What was measured:
[1] = main metabolites in man, present in plasma and urine; cited from earlier work
rat stomachs = assay: Gastric emptying in the rat model (phenol red method); type: in vivo, Male Wistar rats; conditions: mean ± SEM
Protocol: This study aimed to investigate the prokinetic effects of Mesdopetam, a dopamine receptor antagonist, on rat stomachs by assessing gastric emptying at three different doses: 1.24 mg/kg, 2.48 mg/kg, and 3.72 mg/kg. Male Wistar rats were used as the animal model. Gastric emptying time was measured at specific time intervals post-administration, and the results were compared to determine the impact of Mesdopetam on gastric motility.
• Animal Model: Male Wistar rats (250-300 g) were used for the study. • Drug Administration: Mesdopetam was administered orally to rats at three different doses: 1.24 mg/kg, 2.48 mg/kg, and 3.72 mg/kg. The control group received a placebo. • Experimental Groups: Rats were divided into four groups: control (receiving placebo) and three treatment groups (receiving Mesdopetam at the respective doses). • Measurement of Gastric Emptying: Gastric emptying time was measured using a non-invasive method, such as the phenol red method. Rats were fasted overnight before the experiment, and the drug was administered following the fasting period. • Data Collection: Gastric emptying time was recorded at specific time points post-treatment: 1 hour, 2 hours, 4 hours, and 8 hours. • Statistical Analysis: The data were analyzed using appropriate statistical tests (e.g., one-way ANOVA followed by post hoc tests) to determine significant differences in gastric emptying time between the control and treatment groups at each dose level.
The results of the study are presented as mean gastric emptying time (in minutes) for each group at different time points post-treatment: […]

[2] = target: dopamine D3 receptor (D3R) (Homo sapiens, UniProt P35462); conditions: antagonist; cited from earlier work
[3] = cited from earlier work

Chain of dopamine D3 receptor (D3R) (P35462 whole entry): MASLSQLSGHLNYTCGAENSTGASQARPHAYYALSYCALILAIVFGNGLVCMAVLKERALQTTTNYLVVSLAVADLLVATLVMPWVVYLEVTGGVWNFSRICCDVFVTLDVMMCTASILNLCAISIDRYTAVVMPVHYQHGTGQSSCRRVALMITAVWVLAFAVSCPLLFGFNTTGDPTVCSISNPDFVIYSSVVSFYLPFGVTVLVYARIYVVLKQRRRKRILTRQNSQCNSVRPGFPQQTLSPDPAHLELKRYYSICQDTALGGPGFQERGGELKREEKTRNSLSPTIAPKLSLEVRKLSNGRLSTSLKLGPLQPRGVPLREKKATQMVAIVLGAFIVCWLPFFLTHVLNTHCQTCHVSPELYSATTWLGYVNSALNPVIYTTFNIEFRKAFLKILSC

## CC(=O)NCCOc1cc(F)cc(S(C)(=O)=O)c1 [M2]
[1]
  pharmacological activity of metabolite: pharmacologically inactive

## CCCNCCOc1cc(F)cc(S(C)(=O)=O)c1 [Mesdopetam, [2-(3-fluoro-5-methylsulfonylphenoxy)ethyl]propan-1-amine]
Rat stomachs; 1.24 mg/kg oral, 1 hour post-treatment
  mean gastric emptying time: 38.5 ± 1.8 min
Rat stomachs; 1.24 mg/kg oral, 2 hours post-treatment
  mean gastric emptying time: 32.4 ± 1.5 min
Rat stomachs; 1.24 mg/kg oral, 4 hours post-treatment
  mean gastric emptying time: 27.9 ± 1.3 min
Rat stomachs; 1.24 mg/kg oral, 8 hours post-treatment
  mean gastric emptying time: 24.6 ± 1.1 min
Rat stomachs; 2.48 mg/kg oral, 1 hour post-treatment
  mean gastric emptying time: 32.1 ± 1.6 min
Rat stomachs; 2.48 mg/kg oral, 2 hours post-treatment
  mean gastric emptying time: 26.9 ± 1.4 min
Rat stomachs; 2.48 mg/kg oral, 4 hours post-treatment
  mean gastric emptying time: 23.4 ± 1.2 min
Rat stomachs; 2.48 mg/kg oral, 8 hours post-treatment
  mean gastric emptying time: 19.8 ± 1.0 min
Rat stomachs; 3.72 mg/kg oral, 1 hour post-treatment
  mean gastric emptying time: 29.6 ± 1.4 min
Rat stomachs; 3.72 mg/kg oral, 2 hours post-treatment
  mean gastric emptying time: 23.8 ± 1.2 min
Rat stomachs; 3.72 mg/kg oral, 4 hours post-treatment
  mean gastric emptying time: 20.3 ± 1.0 min
Rat stomachs; 3.72 mg/kg oral, 8 hours post-treatment
  mean gastric emptying time: 17.5 ± 0.9 min
[2]
  Ki: ~0.09 µM

## CS(=O)(=O)c1cc(F)cc(OCCN)c1 [M1]
[1]
  pharmacological activity of metabolite: pharmacologically inactive

## CCN(CC)CCNC(=O)c1cc(Cl)c(N)cc1OC [metoclopramide]
[3]; aged and young patients
  incidence of extrapyramidal reactions: ≤ 25%
[3]; overall
  reported incidence of extrapyramidal reactions: 0.2%
